# From PubChem BioAssay AID2060896 (Molecular Pharmacology Branch, DTP, NCI, 2025)
# Test system: 941728-121-R-J1-PDC complex spheroid viability
# Assay: Anticancer human tumor 941728-121-R-J1-PDC patient-derived lung adenocarcinoma cell line growth inhibition [RAS]
# Details: for IC50: curve of first compound; for viability, T/C: stronger effect = lower value
# Summary of the method: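 Agents were tested in combination matrices in half-log decrements from a top concentration at or near clinical Cmax (10 microM if undetermined). Targets were multi-cell spheroids of tumour lines plus HUVEC and MSC stromal cells.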
# [1] = second compound 0.0316 µM, first compound 0.0316 µM
# [2] = second compound 0.0316 µM, first compound 0.1 µM
# [3] = second compound 0.0316 µM, first compound 0.316 µM
# [4] = second compound 0.0316 µM, first compound 1 µM
# [5] = second compound 0.0316 µM, first compound 3.16 µM
# [6] = second compound 0.0316 µM, first compound 10 µM
# [7] = second compound 0.1 µM, first compound 0.0316 µM
# [8] = second compound 0.1 µM, first compound 0.1 µM
# [9] = second compound 0.1 µM, first compound 0.316 µM
# [10] = second compound 0.1 µM, first compound 1 µM
# [11] = second compound 0.1 µM, first compound 3.16 µM
# [12] = second compound 0.1 µM, first compound 10 µM
# [13] = second compound 0.316 µM, first compound 0.0316 µM
# [14] = second compound 0.316 µM, first compound 0.1 µM
# [15] = second compound 0.316 µM, first compound 0.316 µM
# [16] = second compound 0.316 µM, first compound 1 µM
# [17] = second compound 0.316 µM, first compound 3.16 µM
# [18] = second compound 0.316 µM, first compound 10 µM
# [19] = second compound 1 µM, first compound 0.0316 µM
# [20] = second compound 1 µM, first compound 0.1 µM
# [21] = second compound 1 µM, first compound 0.316 µM
# [22] = second compound 1 µM, first compound 1 µM
# [23] = second compound 1 µM, first compound 3.16 µM
# [24] = second compound 1 µM, first compound 10 µM
# [25] = second compound 3.16 µM, first compound 0.0316 µM
# [26] = second compound 3.16 µM, first compound 0.1 µM
# [27] = second compound 3.16 µM, first compound 0.316 µM
# [28] = second compound 3.16 µM, first compound 1 µM
# [29] = second compound 3.16 µM, first compound 3.16 µM
# [30] = second compound 3.16 µM, first compound 10 µM
# [31] = second compound 10 µM, first compound 0.0316 µM
# [32] = second compound 10 µM, first compound 0.1 µM
# [33] = second compound 10 µM, first compound 0.316 µM
# [34] = second compound 10 µM, first compound 1 µM
# [35] = second compound 10 µM, first compound 3.16 µM
# [36] = second compound 10 µM, first compound 10 µM
# 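Also: spheroids exposed to compounds for 7 days before readout.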
# 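For viability, T/C in this document: 100% = DMSO vehicle control viability.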
smiles,measurement,setting,value
Cc1nc(N2CCC3(CC2)COC(C)C3N)c(CO)nc1Sc1ccnc(N)c1Cl (stereo unspecified) + C#Cc1c(F)ccc2cc(O)cc(-c3ncc4c(N5CC6CCC(C5)N6)nc(OCC56CCCN5CC(F)C6)nc4c3F)c12,IC50,second compound 0.0316 µM,< 31.6 nM
same,IC50,second compound 0.1 µM,< 31.6 nM
same,IC50,second compound 0.316 µM,< 31.6 nM
same,IC50,second compound 1 µM,< 31.6 nM
same,IC50,second compound 3.16 µM,< 31.6 nM
same,IC50,second compound 10 µM,< 31.6 nM
same,"viability, T/C",[1],50.4%
same,"viability, T/C",[2],42.5%
same,"viability, T/C",[3],37.8%
same,"viability, T/C",[4],33.5%
same,"viability, T/C",[5],34%
same,"viability, T/C",[6],36.8%
same,"viability, T/C",[7],42.8%
same,"viability, T/C",[8],37.8%
same,"viability, T/C",[9],33.1%
same,"viability, T/C",[10],31.7%
same,"viability, T/C",[11],33%
same,"viability, T/C",[12],35.4%
same,"viability, T/C",[13],37.8%
same,"viability, T/C",[14],34.2%
same,"viability, T/C",[15],35.7%
same,"viability, T/C",[16],29.1%
same,"viability, T/C",[17],32%
same,"viability, T/C",[18],31%
same,"viability, T/C",[19],30.2%
same,"viability, T/C",[20],32.4%
same,"viability, T/C",[21],29.9%
same,"viability, T/C",[22],27.9%
same,"viability, T/C",[23],30.5%
same,"viability, T/C",[24],32.3%
same,"viability, T/C",[25],28.8%
same,"viability, T/C",[26],29.1%
same,"viability, T/C",[27],25.7%
same,"viability, T/C",[28],23.1%
same,"viability, T/C",[29],25.1%
same,"viability, T/C",[30],26.2%
same,"viability, T/C",[31],20.1%
same,"viability, T/C",[32],21.4%
same,"viability, T/C",[33],19.9%
same,"viability, T/C",[34],19.6%
same,"viability, T/C",[35],21.3%
same,"viability, T/C",[36],20.8%
NC1c2ccccc2OC12CCN(c1cnc3c(N4CCCc5ncccc54)n[nH]c3n1)CC2 (stereo unspecified) + C#Cc1c(F)ccc2cc(O)cc(-c3ncc4c(N5CC6CCC(C5)N6)nc(OCC56CCCN5CC(F)C6)nc4c3F)c12,IC50,second compound 0.0316 µM,< 31.6 nM
same,IC50,second compound 0.1 µM,< 31.6 nM
same,IC50,second compound 0.316 µM,< 31.6 nM
same,IC50,second compound 1 µM,< 31.6 nM
same,IC50,second compound 3.16 µM,< 31.6 nM
same,IC50,second compound 10 µM,< 31.6 nM
same,"viability, T/C",[1],37.8%
same,"viability, T/C",[2],34.7%
same,"viability, T/C",[3],30.6%
same,"viability, T/C",[4],35.9%
same,"viability, T/C",[5],35.5%
same,"viability, T/C",[6],43%
same,"viability, T/C",[7],34.8%
same,"viability, T/C",[8],33%
same,"viability, T/C",[9],31.6%
same,"viability, T/C",[10],35.6%
same,"viability, T/C",[11],34.2%
same,"viability, T/C",[12],36.5%
same,"viability, T/C",[13],30.3%
same,"viability, T/C",[14],30.8%
same,"viability, T/C",[15],32.8%
same,"viability, T/C",[16],29.8%
same,"viability, T/C",[17],32%
same,"viability, T/C",[18],37%
same,"viability, T/C",[19],28.5%
same,"viability, T/C",[20],27.6%
same,"viability, T/C",[21],31.4%
same,"viability, T/C",[22],29.4%
same,"viability, T/C",[23],28.8%
same,"viability, T/C",[24],29.7%
same,"viability, T/C",[25],24.1%
same,"viability, T/C",[26],24%
same,"viability, T/C",[27],24.4%
same,"viability, T/C",[28],24.6%
same,"viability, T/C",[29],23.4%
same,"viability, T/C",[30],24.6%
same,"viability, T/C",[31],20.9%
same,"viability, T/C",[32],18.3%
same,"viability, T/C",[33],19.3%
same,"viability, T/C",[34],18.8%
same,"viability, T/C",[35],17.8%
same,"viability, T/C",[36],18.4%
Nc1ccn(C2OC(CO)C(O)C2(F)F)c(=O)n1 (stereo unspecified) + C#Cc1c(F)ccc2cc(O)cc(-c3ncc4c(N5CC6CCC(C5)N6)nc(OCC56CCCN5CC(F)C6)nc4c3F)c12,IC50,second compound 0.0316 µM,22.3 nM
same,IC50,second compound 0.1 µM,15.5 nM
same,IC50,second compound 0.316 µM,5.51 nM
same,IC50,second compound 1 µM,< 3.16 nM
same,IC50,second compound 3.16 µM,< 3.16 nM
same,IC50,second compound 10 µM,< 3.16 nM
same,"viability, T/C","second compound 0.0316 µM, first compound 0.00316 µM",71.5%
same,"viability, T/C","second compound 0.0316 µM, first compound 0.01 µM",54%
same,"viability, T/C",[1],49.6%
same,"viability, T/C",[2],43.4%
same,"viability, T/C",[3],46.3%
same,"viability, T/C",[4],42.6%
same,"viability, T/C","second compound 0.1 µM, first compound 0.00316 µM",72.8%
same,"viability, T/C","second compound 0.1 µM, first compound 0.01 µM",55.1%
same,"viability, T/C",[7],41.7%
same,"viability, T/C",[8],38.3%
same,"viability, T/C",[9],34.5%
same,"viability, T/C",[10],38.2%
same,"viability, T/C","second compound 0.316 µM, first compound 0.00316 µM",51%
same,"viability, T/C","second compound 0.316 µM, first compound 0.01 µM",52.6%
same,"viability, T/C",[13],38.3%
same,"viability, T/C",[14],35.5%
same,"viability, T/C",[15],37.6%
same,"viability, T/C",[16],33.1%
same,"viability, T/C","second compound 1 µM, first compound 0.00316 µM",33.9%
same,"viability, T/C","second compound 1 µM, first compound 0.01 µM",31.9%
same,"viability, T/C",[19],31.6%
same,"viability, T/C",[20],33.2%
same,"viability, T/C",[21],36.8%
same,"viability, T/C",[22],30.3%
same,"viability, T/C","second compound 3.16 µM, first compound 0.00316 µM",30.4%
same,"viability, T/C","second compound 3.16 µM, first compound 0.01 µM",28.7%
same,"viability, T/C",[25],28.5%
same,"viability, T/C",[26],28.3%
same,"viability, T/C",[27],26.1%
same,"viability, T/C",[28],27.7%
same,"viability, T/C","second compound 10 µM, first compound 0.00316 µM",23.6%
same,"viability, T/C","second compound 10 µM, first compound 0.01 µM",21.3%
same,"viability, T/C",[31],20.8%
same,"viability, T/C",[32],18%
same,"viability, T/C",[33],20.2%
same,"viability, T/C",[34],20.1%
